# Reference: PubChem BioAssay AID1745844 (Carcinogenic Potency Database (CPDB), 2022)
# Calls of active or inactive are those of the source. No rule for the calls is given here.
# Test system: rodent lifetime carcinogenesis bioassay, tumor incidence TD50
# Assay: chronic cancer bioassays in animals – CPDB, compiled studies (AID 1745844)
compound,measurement,setting,value
CCOc1ccc(NC(C)=O)cc1,TD50,"mouse, strain B6C3F1, females, in feed, site: liver, lesion: hemangioma, dosed 96 weeks, study length 104 weeks",29200 mg/kg/day (inactive)
same,TD50,"mouse, strain B6C3F1, females, in feed, site: liver, lesion: hepatocellular carcinoma, dosed 96 weeks, study length 104 weeks",47700 mg/kg/day (inactive)
same,TD50,"mouse, strain B6C3F1, females, in feed, site: liver, lesion: hyperplastic nodule, dosed 96 weeks, study length 104 weeks",14000 mg/kg/day (inactive)
same,TD50,"mouse, strain B6C3F1, females, in feed, site: lung, lesion: adenocarcinoma, dosed 96 weeks, study length 104 weeks",8830 mg/kg/day (inactive)
same,TD50,"mouse, strain B6C3F1, females, in feed, site: lung, lesion: adenoma, dosed 96 weeks, study length 104 weeks",6890 mg/kg/day (inactive)
same,TD50,"mouse, strain B6C3F1, females, in feed, site: urinary bladder, lesion: papilloma, dosed 96 weeks, study length 104 weeks",37000 mg/kg/day
same,TD50,"mouse, strain B6C3F1, females, in feed, site: urinary bladder, lesion: transitional-cell carcinoma, dosed 96 weeks, study length 104 weeks",37000 mg/kg/day
same,TD50,"mouse, strain B6C3F1, males, in feed, site: kidney, lesion: renal-cell adenoma, dosed 96 weeks, study length 104 weeks",1100 mg/kg/day
same,TD50,"mouse, strain B6C3F1, males, in feed, site: kidney, lesion: renal-cell carcinoma, dosed 96 weeks, study length 104 weeks",4020 mg/kg/day
same,carcinogen call,"mouse, strain B6C3F1, males, in feed, site: liver, lesion: hemangioma, dosed 96 weeks, study length 104 weeks",negative (inactive)
same,TD50,"mouse, strain B6C3F1, males, in feed, site: liver, lesion: hepatocellular carcinoma, dosed 96 weeks, study length 104 weeks",17100 mg/kg/day (inactive)
same,carcinogen call,"mouse, strain B6C3F1, males, in feed, site: liver, lesion: hyperplastic nodule, dosed 96 weeks, study length 104 weeks",negative (inactive)
same,TD50,"mouse, strain B6C3F1, males, in feed, site: lung, lesion: adenocarcinoma, dosed 96 weeks, study length 104 weeks",3800 mg/kg/day (inactive)
same,TD50,"mouse, strain B6C3F1, males, in feed, site: lung, lesion: adenoma, dosed 96 weeks, study length 104 weeks",5280 mg/kg/day (inactive)
same,carcinogen call,"mouse, strain C57BL/6, females, in feed, site: liver, lesion: one or several types, types not named, dosed 77 weeks, study length 77 weeks",negative (inactive)
same,TD50,"mouse, strain C57BL/6, males, in feed, site: liver, lesion: hyperplastic nodule, dosed 77 weeks, study length 77 weeks",12900 mg/kg/day (inactive)
same,TD50,"rat, strain Sprague-Dawley, females, in feed, site: all sites, lesion: myeloid leukemia, dosed 78 weeks, study length 104 weeks",2560 mg/kg/day (inactive)
same,TD50,"rat, strain Sprague-Dawley, females, in feed, site: any site (literature study), lesion: several types, types named in the paper, dosed 78 weeks, study length 104 weeks",1210 mg/kg/day
same,TD50,"rat, strain Sprague-Dawley, females, in feed, site: ear duct, lesion: squamous-cell carcinoma, dosed 110 weeks, study length 110 weeks",1430 mg/kg/day
same,TD50,"rat, strain Sprague-Dawley, females, in feed, site: mammary gland, lesion: adenocarcinoma, dosed 110 weeks, study length 110 weeks",1380 mg/kg/day
same,TD50,"rat, strain Sprague-Dawley, females, in feed, site: nasal cavity, lesion: adenocarcinoma, dosed 78 weeks, study length 104 weeks",7730 mg/kg/day
same,TD50,"rat, strain Sprague-Dawley, females, in feed, site: nasal cavity, lesion: squamous-cell carcinoma, dosed 78 weeks, study length 104 weeks",48000 mg/kg/day
same,TD50,"rat, strain Sprague-Dawley, females, in feed, site: nasal cavity, lesion: transitional-cell carcinoma, dosed 78 weeks, study length 104 weeks",23800 mg/kg/day
same,TD50,"rat, strain Sprague-Dawley, females, in feed, site: several sites, sites named in the paper, lesion: several types, types named in the paper, dosed 78 weeks, study length 104 weeks",2730 mg/kg/day
same,TD50,"rat, strain Sprague-Dawley, females, in feed, site: urinary bladder, lesion: papilloma, dosed 78 weeks, study length 104 weeks",23800 mg/kg/day
same,TD50,"rat, strain Sprague-Dawley, females, in feed, site: urinary bladder, lesion: transitional-cell carcinoma, dosed 78 weeks, study length 104 weeks",11700 mg/kg/day
same,TD50,"rat, strain Sprague-Dawley, males, in feed, site: all sites, lesion: myeloid leukemia, dosed 78 weeks, study length 104 weeks",2380 mg/kg/day (inactive)
same,TD50,"rat, strain Sprague-Dawley, males, in feed, site: any site (literature study), lesion: several types, types named in the paper, dosed 78 weeks, study length 104 weeks",631 mg/kg/day
same,TD50,"rat, strain Sprague-Dawley, males, in feed, site: forestomach, lesion: squamous-cell papilloma, dosed 117 weeks, study length 117 weeks",2690 mg/kg/day
same,TD50,"rat, strain Sprague-Dawley, males, in feed, site: kidney cortex, lesion: renal-cell tumor, dosed 117 weeks, study length 117 weeks",1300 mg/kg/day
same,TD50,"rat, strain Sprague-Dawley, males, in feed, site: kidney/pelvis, lesion: one or several types, types not named, dosed 117 weeks, study length 117 weeks",5470 mg/kg/day
same,TD50,"rat, strain Sprague-Dawley, males, in feed, site: kidney/pelvis, lesion: renal-cell carcinoma, dosed 78 weeks, study length 104 weeks",38300 mg/kg/day
same,TD50,"rat, strain Sprague-Dawley, males, in feed, site: liver, lesion: hemangioma, dosed 117 weeks, study length 117 weeks",5470 mg/kg/day
same,TD50,"rat, strain Sprague-Dawley, males, in feed, site: nasal cavity, lesion: adenocarcinoma, dosed 78 weeks, study length 104 weeks",2380 mg/kg/day
same,TD50,"rat, strain Sprague-Dawley, males, in feed, site: nasal cavity, lesion: squamous-cell carcinoma, dosed 78 weeks, study length 104 weeks",7530 mg/kg/day
same,TD50,"rat, strain Sprague-Dawley, males, in feed, site: nasal cavity, lesion: transitional-cell carcinoma, dosed 78 weeks, study length 104 weeks",4050 mg/kg/day
same,TD50,"rat, strain Sprague-Dawley, males, in feed, site: several sites, sites named in the paper, lesion: several types, types named in the paper, dosed 78 weeks, study length 104 weeks",741 mg/kg/day
same,TD50,"rat, strain Sprague-Dawley, males, in feed, site: urinary bladder, lesion: one or several types, types not named, dosed 117 weeks, study length 117 weeks",1640 mg/kg/day
same,TD50,"rat, strain Sprague-Dawley, males, in feed, site: urinary bladder, lesion: transitional-cell carcinoma, dosed 78 weeks, study length 104 weeks",2710 mg/kg/day
same,carcinogen call,"rat, strain Wistar, females, in feed, site: urinary tract, lesion: one or several types, types not named, dosed 69 weeks, study length 69 weeks",negative (inactive)
CCCCCCc1ccc(O)cc1O,carcinogen call,"mouse, strain B6C3F1, females, by gavage, site: any site (literature study), lesion: several types, types named in the paper, dosed 102 weeks, study length 104 weeks",negative (inactive)
same,TD50,"mouse, strain B6C3F1, males, by gavage, site: Harderian gland, lesion: adenoma, NOS + carcinoma, NOS, dosed 102 weeks, study length 104 weeks",368 mg/kg/day
same,TD50,"mouse, strain B6C3F1, males, by gavage, site: adrenal medulla, lesion: pheochromocytoma, dosed 102 weeks, study length 104 weeks",519 mg/kg/day
same,carcinogen call,"rat, strain Fischer 344, females, by gavage, site: any site (literature study), lesion: several types, types named in the paper, dosed 103 weeks, study length 104 weeks",negative (inactive)
same,TD50,"rat, strain Fischer 344, females, by gavage, site: liver, lesion: hepatocellular adenoma + hepatocellular carcinoma + neoplastic nodule, dosed 103 weeks, study length 104 weeks",128000 mg/kg/day
same,TD50,"rat, strain Fischer 344, males, by gavage, site: any site (literature study), lesion: several types, types named in the paper, dosed 103 weeks, study length 104 weeks",615 mg/kg/day (inactive)
same,TD50,"rat, strain Fischer 344, males, by gavage, site: liver, lesion: hepatocellular adenoma + hepatocellular carcinoma + neoplastic nodule, dosed 103 weeks, study length 104 weeks",1530 mg/kg/day
CN(CCCC(=O)c1cccnc1)N=O,TD50,"hamster, strain Syrian Golden, females, in drinking water, site: liver, lesion: hepatocellular carcinoma, dosed 87 weeks, study length 87 weeks",5.13 mg/kg/day (inactive)
same,carcinogen call,"hamster, strain Syrian Golden, females, in drinking water, site: lung, lesion: several types, types named in the paper, dosed 87 weeks, study length 87 weeks",negative (inactive)
same,carcinogen call,"hamster, strain Syrian Golden, females, in drinking water, site: pancreas, lesion: adenocarcinoma, dosed 87 weeks, study length 87 weeks",negative (inactive)
same,carcinogen call,"hamster, strain Syrian Golden, females, in drinking water, site: pancreatic islets, lesion: islet-cell adenoma, dosed 87 weeks, study length 87 weeks",negative (inactive)
same,TD50,"rat, strain Fischer 344, males, in drinking water, site: all sites, lesion: several types, types named in the paper, dosed 118 weeks, study length 128 weeks",0.14 mg/kg/day
same,TD50,"rat, strain Fischer 344, males, in drinking water, site: liver, lesion: adenoma, dosed 118 weeks, study length 128 weeks",0.871 mg/kg/day
same,TD50,"rat, strain Fischer 344, males, in drinking water, site: liver, lesion: hepatoma, dosed 118 weeks, study length 128 weeks",2.74 mg/kg/day
same,TD50,"rat, strain Fischer 344, males, in drinking water, site: liver, lesion: several types, types named in the paper, dosed 111 weeks, study length 111 weeks",2.97 mg/kg/day
same,TD50,"rat, strain Fischer 344, males, in drinking water, site: liver, lesion: several types, types named in the paper, dosed 118 weeks, study length 128 weeks",0.651 mg/kg/day
same,TD50,"rat, strain Fischer 344, males, in drinking water, site: lung, lesion: adenocarcinoma, dosed 111 weeks, study length 111 weeks",0.148 mg/kg/day
same,TD50,"rat, strain Fischer 344, males, in drinking water, site: lung, lesion: adenocarcinoma, dosed 118 weeks, study length 128 weeks",0.672 mg/kg/day
same,TD50,"rat, strain Fischer 344, males, in drinking water, site: lung, lesion: adenoma, dosed 111 weeks, study length 111 weeks",0.279 mg/kg/day
same,TD50,"rat, strain Fischer 344, males, in drinking water, site: lung, lesion: adenoma, dosed 118 weeks, study length 128 weeks",0.343 mg/kg/day
same,TD50,"rat, strain Fischer 344, males, in drinking water, site: lung, lesion: adenosquamous carcinoma, dosed 118 weeks, study length 128 weeks",1.46 mg/kg/day
same,TD50,"rat, strain Fischer 344, males, in drinking water, site: lung, lesion: several types, types named in the paper, dosed 111 weeks, study length 111 weeks",0.0688 mg/kg/day
same,TD50,"rat, strain Fischer 344, males, in drinking water, site: lung, lesion: several types, types named in the paper, dosed 118 weeks, study length 128 weeks",0.182 mg/kg/day
same,TD50,"rat, strain Fischer 344, males, in drinking water, site: lung, lesion: squamous-cell carcinoma, dosed 118 weeks, study length 128 weeks",3.4 mg/kg/day
same,TD50,"rat, strain Fischer 344, males, in drinking water, site: nasal cavity, lesion: several types, types named in the paper, dosed 118 weeks, study length 128 weeks",1.66 mg/kg/day
same,TD50,"rat, strain Fischer 344, males, in drinking water, site: pancreas, exocrine, lesion: acinar-cell adenoma, dosed 118 weeks, study length 128 weeks",29.2 mg/kg/day
same,TD50,"rat, strain Fischer 344, males, in drinking water, site: pancreas, exocrine, lesion: adenocarcinoma, acinar or ductal, dosed 118 weeks, study length 128 weeks",6.93 mg/kg/day
same,TD50,"rat, strain Fischer 344, males, in drinking water, site: pancreas, exocrine, lesion: malignant tumor, dosed 111 weeks, study length 111 weeks",0.975 mg/kg/day
same,TD50,"rat, strain Fischer 344, males, in drinking water, site: pancreas, exocrine, lesion: several types, types named in the paper, dosed 118 weeks, study length 128 weeks",0.49 mg/kg/day
CCCCC/C=C\C/C=C\CCCCCCCC(=O)O[C@H](COC(=O)CCCCCCCCCCCCCCC)COP(=O)([O-])OCC[N+](C)(C)C,carcinogen call,"rat, strain Wistar, females, in feed, site: liver, lesion: nodular hyperplasia, dosed 104 weeks, study length 104 weeks",negative (inactive)
same,TD50,"rat, strain Wistar, males, in feed, site: liver, lesion: cholangioma, dosed 104 weeks, study length 104 weeks",42200 mg/kg/day (inactive)
CCCC[N+](=O)[O-],carcinogen call,"rat, strain Fischer 344, males, by gavage, site: liver, lesion: one or several types, types not named, dosed 50 weeks, study length 83 weeks",negative (inactive)
Oc1cc2c(cc1O)[C@@H]1c3ccc(O)c(O)c3OC[C@]1(O)C2,TD50,"rat, strain Wistar, both sexes, in feed, site: abdomen, lesion: malignant lymphoma, dosed 78 weeks, study length 78 weeks",2410 mg/kg/day
same,TD50,"rat, strain Wistar, both sexes, in feed, site: forehead, lesion: malignant lymphoma, dosed 78 weeks, study length 78 weeks",2410 mg/kg/day
same,TD50,"rat, strain Wistar, both sexes, in feed, site: several sites, sites named in the paper, lesion: malignant lymphoma, dosed 78 weeks, study length 78 weeks",1000 mg/kg/day
